Source: PMC12028158, “Synthesis and In Vitro Evaluation of the Anticancer Effect of Novel Phosphonium Vindoline Derivatives” (International Journal of Molecular Sciences, 2025)
Like-named read-outs stand apart in the source and are kept apart here.

Tests used:
Assay type in all cases: cell-based
BT-549 [1] = assay: NCI60 five-dose screen; conditions: Homo sapiens, BT-549, Breast Cancer, read-out: GI50
A498 [2] = assay: NCI60 five-dose screen; conditions: Homo sapiens, A498, Renal Cancer, read-out: GI50
KM12 = assay: NCI60 one-dose screen; conditions: Homo sapiens; KM12, 10 μM, one-dose; read-out: Growth percent
SF-268 = assay: NCI60 five-dose screen; conditions: Homo sapiens, SF-268, CNS Cancer, read-out: GI50
Leukemia panel = assay: NCI60 five-dose screen, panel mean; conditions: Homo sapiens, mean over Leukemia panel
HL-60(TB) = assay: NCI60 five-dose screen; conditions: Homo sapiens, HL-60, HL-60(TB), Leukemia, read-out: GI50
MDA-MB-231/ATCC = assay: NCI60 one-dose screen; conditions: Homo sapiens; MDA-MB-231/ATCC, 10 μM, one-dose; read-out: Growth percent
EKVX = assay: NCI60 five-dose screen; conditions: Homo sapiens, Non-small Cell Lung Cancer, read-out: GI50
HOP-92 = assay: NCI60 one-dose screen; conditions: Homo sapiens; HOP-92, 10 μM, one-dose; read-out: Growth percent
NCI-H23 = assay: NCI60 one-dose screen; conditions: Homo sapiens; NCI-H23, 10 μM, one-dose; read-out: Growth percent
SK-MEL-28 = assay: NCI60 five-dose screen; conditions: Homo sapiens, SK-MEL-28, Melanoma, read-out: GI50
CNS Cancer panel = assay: NCI60 five-dose screen, panel mean; conditions: Homo sapiens, mean over CNS Cancer panel
Breast Cancer panel = assay: NCI60 five-dose screen, panel mean; conditions: Homo sapiens, mean over Breast Cancer panel
HCT-116 = assay: NCI60 five-dose screen; conditions: Homo sapiens, HCT-116, Colon Cancer, read-out: GI50
NCI-H322M = assay: NCI60 one-dose screen; conditions: Homo sapiens, 10 μM, one-dose, read-out: Growth percent
HCT-15 [3] = assay: NCI60 one-dose screen; conditions: Homo sapiens; HCT-15, 10 μM, one-dose; read-out: Growth percent
NCI-H460 = assay: NCI60 one-dose screen; conditions: Homo sapiens; NCI-H460, 10 μM, one-dose; read-out: Growth percent
DU-145 = assay: NCI60 five-dose screen; conditions: Homo sapiens, DU-145, Prostate Cancer, read-out: GI50
MDA-MB-435 = assay: NCI60 five-dose screen; conditions: Homo sapiens, MDA-MB-435, Melanoma, read-out: GI50
UACC-62 [4] = assay: NCI60 one-dose screen; conditions: Homo sapiens; UACC-62, 10 μM, one-dose; read-out: Growth percent
NCI/ADR-RES [5] = assay: NCI60 one-dose screen; conditions: Homo sapiens, 10 μM, one-dose, read-out: Growth percent
NCI/ADR-RES [6] = assay: NCI60 five-dose screen; conditions: Homo sapiens, Ovarian Cancer, read-out: GI50
HS 578T = assay: NCI60 five-dose screen; conditions: Homo sapiens, HS 578T, Breast Cancer, read-out: GI50
786-0 [7] = assay: NCI60 five-dose screen; conditions: Homo sapiens, 786-0, Renal Cancer, read-out: GI50
M14 = assay: NCI60 five-dose screen; conditions: Homo sapiens, M14, Melanoma, read-out: GI50
BT-549 [8] = assay: NCI60 one-dose screen; conditions: Homo sapiens; BT-549, 10 μM, one-dose; read-out: Growth percent
K-562 = assay: NCI60 five-dose screen; conditions: Homo sapiens, K562, K-562, Leukemia, read-out: GI50
UACC-62 [9] = assay: NCI60 five-dose screen; conditions: Homo sapiens, UACC-62, Melanoma, read-out: GI50
786-0 [10] = assay: NCI60 one-dose screen; conditions: Homo sapiens; 786-0, 10 μM, one-dose; read-out: Growth percent
OVCAR-8 = assay: NCI60 one-dose screen; conditions: Homo sapiens; OVCAR-8, 10 μM, one-dose; read-out: Growth percent
HCT-15 [11] = assay: NCI60 five-dose screen; conditions: Homo sapiens, HCT-15, Colon Cancer, read-out: GI50
[12] = tested on: 60 human tumor cell lines (NCI60); assay: NCI60 one-dose screen, overall mean; conditions: one-dose; for activity at 10 µM: Homo sapiens, mean over 60 cell lines, read-out: Mean growth percent
IGROV1 [13] = assay: NCI60 five-dose screen; conditions: Homo sapiens, IGROV-1, IGROV1, Ovarian Cancer, read-out: GI50
OVCAR-4 = assay: NCI60 five-dose screen; conditions: Homo sapiens, OVCAR-4, Ovarian Cancer, read-out: GI50
RXF 393 = assay: NCI60 five-dose screen; conditions: Homo sapiens, RXF 393, Renal Cancer, read-out: GI50
MOLT-4 = assay: NCI60 one-dose screen; conditions: Homo sapiens; MOLT-4, 10 μM, one-dose; read-out: Growth percent
SF-539 = assay: NCI60 one-dose screen; conditions: Homo sapiens; SF-539, 10 μM, one-dose; read-out: Growth percent
IGROV1 [14] = assay: NCI60 one-dose screen; conditions: Homo sapiens, IGROV-1; IGROV1, 10 μM, one-dose; read-out: Growth percent
MALME-3M = assay: NCI60 one-dose screen; conditions: Homo sapiens; MALME-3M, 10 μM, one-dose; read-out: Growth percent
NCI-H226 = assay: NCI60 five-dose screen; conditions: Homo sapiens, NCI-H226, Non-small Cell Lung Cancer, read-out: GI50
SN12C [15] = assay: NCI60 one-dose screen; conditions: Homo sapiens, 10 μM, one-dose, read-out: Growth percent
CAKI-1 = assay: NCI60 five-dose screen; conditions: Homo sapiens, CAKI-1, Renal Cancer, read-out: GI50
SR = assay: NCI60 one-dose screen; conditions: Homo sapiens, 10 μM, one-dose, read-out: Growth percent
SK-MEL-5 [16] = assay: NCI60 five-dose screen; conditions: Homo sapiens, SK-MEL-5, Melanoma, read-out: GI50
SK-MEL-5 [17] = assay: NCI60 one-dose screen; conditions: Homo sapiens; SK-MEL-5, 10 μM, one-dose; read-out: Growth percent
SN12C [18] = assay: NCI60 five-dose screen; conditions: Homo sapiens, Renal Cancer, read-out: GI50
A498 [19] = assay: NCI60 one-dose screen; conditions: Homo sapiens; A498, 10 μM, one-dose; read-out: Growth percent

Compound: CC[C@]12C=CCN3CC[C@@]4(c5ccc(OC)cc5N(C)[C@H]4[C@@](O)(C(=O)OC)[C@@H]1OC(=O)CCC[P+](c1ccc(OC)cc1)(c1ccc(OC)cc1)c1ccc(OC)cc1)[C@@H]32 [9b]
- GI50 (BT-549 [1]; five-dose): 1050 nM
- GI50 (A498 [2]; five-dose): 2340 nM
- activity at 10 µM (KM12): -65.3%
- GI50 (SF-268; five-dose): 1210 nM
- GI50 (Leukemia panel; read-out: Mean GI50): 550 nM
- GI50 (HL-60(TB); five-dose): 256 nM
- activity at 10 µM (MDA-MB-231/ATCC): -97%
- GI50 (EKVX; five-dose): 1060 nM
- activity at 10 µM (HOP-92): -82.9%
- activity at 10 µM (NCI-H23): -92.5%
- GI50 (SK-MEL-28; five-dose): 453 nM
- GI50 (CNS Cancer panel; read-out: Mean GI50): 1020 nM
- GI50 (Breast Cancer panel; read-out: Mean GI50): 640 nM
- GI50 (HCT-116; five-dose): 712 nM
- activity at 10 µM (NCI-H322M): -97.7%
- activity at 10 µM (HCT-15 [3]): -86.3%
- activity at 10 µM (NCI-H460): -85.2%
- GI50 (DU-145; five-dose): 955 nM
- GI50 (MDA-MB-435; five-dose): 480 nM
- activity at 10 µM (UACC-62 [4]): -97.1%
- activity at 10 µM (NCI/ADR-RES [5]): 79.9%
- GI50 (NCI/ADR-RES [6]; five-dose): 18100 nM
- GI50 (HS 578T; five-dose): 1180 nM
- GI50 (786-0 [7]; five-dose): 1930 nM
- GI50 (M14; five-dose): 1120 nM
- activity at 10 µM (BT-549 [8]): -96.6%
- GI50 (K-562; five-dose): 556 nM
- GI50 (UACC-62 [9]; five-dose): 603 nM
- activity at 10 µM (786-0 [10]): -89.5%
- activity at 10 µM (OVCAR-8): -86.2%
- GI50 (HCT-15 [11]; five-dose): 3640 nM
- activity at 10 µM [12]: -76.2%
- average reduction / average cell death ([12]; 10 µM, average over cell lines): more than 70%
- GI50 (IGROV1 [13]; five-dose): 533 nM
- GI50 (OVCAR-4; five-dose): 760 nM
- GI50 (RXF 393; five-dose): 482 nM
- activity at 10 µM (MOLT-4): -36.8%
- activity at 10 µM (SF-539): -98.9%
- activity at 10 µM (IGROV1 [14]): -92.1%
- activity at 10 µM (MALME-3M): -97.8%
- GI50 (NCI-H226; five-dose): 1430 nM
- activity at 10 µM (SN12C [15]): -93.4%
- GI50 (CAKI-1; five-dose): 13700 nM
- activity at 10 µM (SR): 15%
- GI50 (SK-MEL-5 [16]; five-dose): 1550 nM
- activity at 10 µM (SK-MEL-5 [17]): -99.6%
- GI50 (SN12C [18]; five-dose): 672 nM
- activity at 10 µM (A498 [19]): -83.2%

Compound: CCC12C=CCN3CCC4(c5ccc(OC)cc5N(C)C4C(O)(C(=O)OC)C1OC(=O)c1ccc(C[P+](c4ccccc4)(c4ccccc4)c4ccccc4)cc1)C32 (centres unmarked) [compound 12]
- GI50 (BT-549 [1]): 538 nM
- GI50 (A498 [2]): 16400 nM
- activity at 10 µM (KM12): -65.8%
- GI50 (SF-268): 1280 nM
- GI50 (Leukemia panel; read-out: GI50 Mean): 770 nM
- GI50 (HL-60(TB)): 297 nM
- activity at 10 µM (MDA-MB-231/ATCC): -91.5%
- GI50 (EKVX): 2030 nM
- activity at 10 µM (HOP-92): -73.4%
- activity at 10 µM (NCI-H23): 0.48%
- GI50 (SK-MEL-28): 520 nM
- GI50 (CNS Cancer panel; read-out: GI50 Mean): 1320 nM
- GI50 (Breast Cancer panel; read-out: GI50 Mean): 610 nM
- GI50 (HCT-116): 1590 nM
- activity at 10 µM (NCI-H322M): 19.9%
- activity at 10 µM (HCT-15 [3]): 90.1%
- activity at 10 µM (NCI-H460): -62.8%
- GI50 (DU-145): 1610 nM
- GI50 (MDA-MB-435): 483 nM
- activity at 10 µM (UACC-62 [4]): -86.9%
- GI50 (NCI/ADR-RES [6]): > 100000 nM
- GI50 (HS 578T): 1270 nM
- GI50 (786-0 [7]): 3580 nM
- GI50 (M14): 1350 nM
- activity at 10 µM (BT-549 [8]): -89.1%
- GI50 (K-562): 448 nM
- GI50 (UACC-62 [9]): 1030 nM
- activity at 10 µM (786-0 [10]): -47.8%
- activity at 10 µM (OVCAR-8): -18.5%
- GI50 (HCT-15 [11]): 27400 nM
- activity at 10 µM [12]: -37.1%
- cytotoxicity (in words) ([12]; 10 µM): moderate cytotoxicity
- GI50 (IGROV1 [13]): 885 nM
- GI50 (OVCAR-4): 1050 nM
- GI50 (RXF 393): 1140 nM
- activity at 10 µM (MOLT-4): -53%
- activity at 10 µM (SF-539): -90.6%
- activity at 10 µM (IGROV1 [14]): -69.6%
- activity at 10 µM (MALME-3M): -95.5%
- GI50 (NCI-H226): 1540 nM
- activity at 10 µM (SN12C [15]): -46.5%
- GI50 (CAKI-1): 3260 nM
- activity at 10 µM (SR): -58.3%
- GI50 (SK-MEL-5 [16]): 1210 nM
- activity at 10 µM (SK-MEL-5 [17]): -98.5%
- GI50 (SN12C [18]): 708 nM
- activity at 10 µM (A498 [19]): 70.2%
